The text below walks through data of publication doi:10.1101/2024.03.05.583521v1 (biorxiv, 2024).

Data set [1] deals with T1, PIB-1 (Pseudomonas aeruginosa, UniProt Q9HT32).
T1 sequence (Q9HT32 28-414): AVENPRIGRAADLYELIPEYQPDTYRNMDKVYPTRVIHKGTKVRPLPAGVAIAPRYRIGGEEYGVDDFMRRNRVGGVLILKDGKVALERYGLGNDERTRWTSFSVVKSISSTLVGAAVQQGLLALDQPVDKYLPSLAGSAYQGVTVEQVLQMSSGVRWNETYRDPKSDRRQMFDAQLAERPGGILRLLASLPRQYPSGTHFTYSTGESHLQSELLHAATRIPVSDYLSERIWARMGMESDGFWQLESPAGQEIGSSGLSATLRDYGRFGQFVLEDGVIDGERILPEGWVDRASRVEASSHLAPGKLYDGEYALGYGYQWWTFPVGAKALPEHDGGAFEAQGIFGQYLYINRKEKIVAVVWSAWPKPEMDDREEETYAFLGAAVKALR
The data set can be described thus: isothermal titration calorimetry. Format: binding.

Data set [2] has as its target T1, PIB-1. The data set can be described thus: intrinsic protein fluorescence quenching. Format: binding.
Substrate in the data set “purified protein”: O=C(Cc1cccs1)N[C@@H]1C(=O)N2C(C(=O)O)=C(/C=C/c3ccc([N+](=O)[O-])cc3[N+](=O)[O-])CS[C@H]12
The data set can be described thus: purified protein. The conditions noted are these: no added metal, 10 mM Na-HEPES pH 7.5, 100 mM NaCl, 37 °C.

By Kd is commonly meant the concentration at which binding is half-saturated. Read a high Kd as weaker binding. By Km is commonly meant the substrate concentration at which the rate is half of its maximum. The kcat is the maximal rate divided by the concentration of active sites.

The molecule `C[C@@H](O)[C@H]1C(=O)N2C(C(=O)O)=C(SCCN=CN)C[C@H]12` [imipenem] gave a Kd on PIB-1 [1] of 79.8 ± 5.9 µM. Molecule `C[C@@H](O)[C@H]1C(=O)N2C(C(=O)O)=C(S[C@@H]3CN[C@H](C(=O)N(C)C)C3)[C@H](C)[C@H]12` [meropenem] came in with a Kd at PIB-1 [2] of 74.8 ± 10.3 µM.

B1: PIB-1 (Pseudomonas aeruginosa PAO1) (protein)
chain: AVENPRIGRAADLYELIPEYQPDTYRNMDKVYPTRVIHKGTKVRPLPAGVAIAPRYRIGGEEYGVDDFMRRNRVGGVLILKDGKVALERYGLGNDERTRWTSFSVVKSISSTLVGAAVQQGLLALDQPVDKYLPSLAGSAYQGVTVEQVLQMSSGVRWNETYRDPKSDRRQMFDAQLAERPGGILRLLASLPRQYPSGTHFTYSTGESHLQSELLHAATRIPVSDYLSERIWARMGMESDGFWQLESPAGQEIGSSGLSATLRDYGRFGQFVLEDGVIDGERILPEGWVDRASRVEASSHLAPGKLYDGEYALGYGYQWWTFPVGAKALPEHDGGAFEAQGIFGQYLYINRKEKIVAVVWSAWPKPEMDDREEETYAFLGAAVKALR
For B1, in the data set “purified protein”, the Km was determined as 95.3 ± 8.9 µM and the catalytic constant (kcat) was found to be 0.0041 ± 0.0005 s⁻¹.
